Measurements taken from article PMC5733478, “A Non-imaging High Throughput Approach to Chemical Library Screening at the Unmodified Adenosine-A3 Receptor in Living Cells” (Frontiers in Pharmacology, 2017).
Structures can show the parent of a compound that is named as a salt.

The molecules below were run against T1, human A3AR (Homo sapiens, UniProt P0DMS8) (assay: LOPAC library primary screen: single concentration (10 μM) inhibition of 25 nM CA200645 binding, PHERAstar FS). Conditions: not given.
T1 construct: expressed in transfected cells
T1 sequence (P0DMS8 1-318): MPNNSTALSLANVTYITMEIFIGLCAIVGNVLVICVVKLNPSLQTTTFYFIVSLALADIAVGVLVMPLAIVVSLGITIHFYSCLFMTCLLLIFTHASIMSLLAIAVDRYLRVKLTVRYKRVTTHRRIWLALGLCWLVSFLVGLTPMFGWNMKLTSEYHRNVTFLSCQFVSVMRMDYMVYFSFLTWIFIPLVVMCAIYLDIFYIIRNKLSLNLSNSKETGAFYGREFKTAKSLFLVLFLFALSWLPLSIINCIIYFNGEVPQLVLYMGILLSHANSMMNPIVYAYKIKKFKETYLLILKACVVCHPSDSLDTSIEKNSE

Row | Structure (SMILES) | % 25 nM CA200645 binding [%]
1 | COc1ccc(C2(O)OC(=O)C(c3ccc4c(c3)OCO4)=C2Cc2cc(OC)c(OC)c(OC)c2)cc1 (centres unmarked) [PD-156707] | 71.9 ± 8.4
2 | CCN(CC)CCCCNc1ncc2cc(-c3c(Cl)cccc3Cl)c(NC(=O)NC(C)(C)C)nc2n1 [PD-161570] | 90.7 ± 9.1
3 | CCN(CC)CCOc1ccc(Nc2ncc3cc(-c4c(Cl)cccc4Cl)c(=O)n(C)c3n2)cc1.O [PD-166285 hydrate] | 108.1 ± 4.5
4 | COc1cc(OC)cc(-c2cc3cnc(N)nc3nc2NC(=O)NC(C)(C)C)c1 [PD-166866] | 34.3 ± 9.7
5 | CS(=O)(=O)c1cccc(CNc2nc(Nc3ccc4c(c3)CCC(=O)N4)ncc2C(F)(F)F)c1 [PF-573228] | 54.7 ± 30.2
6 | CCc1cncnc1N1CCN(Cc2nc3ccc(C(F)(F)F)cc3[nH]2)CC1 [PF-4708671] | 99.2 ± 13.5
7 | CCC(C)N(C)C(=O)c1cc2ccccc2c(-c2ccccc2Cl)n1 (centres unmarked) [PK 11195] | 93.2 ± 6.1
8 | Nc1nc2c(ncn2CCOCP(=O)(O)O)c(=O)[nH]1 [PMEG hydrate] | 97.6 ± 14.8
9 | O=C(N[C@H]1CN2CCC1CC2)c1ccc(Cl)cc1 [PNU-282987] | 78.9 ± 33.0
10 | Cc1nc(N=Nc2ccc(S(=O)(=O)O)cc2S(=O)(=O)O)c(COP(=O)(O)O)c(C=O)c1O [PPADS] | 106.1 ± 11.3
11 | Cc1nc(N=Nc2cc(S(=O)(=O)[O-])c3cc([N+](=O)[O-])cc(S(=O)(=O)[O-])c3c2)c(COP(=O)([O-])[O-])c(C=O)c1O.[Na+].[Na+].[Na+].[Na+] [PPNDS tetrasodium] | 100.4 ± 12.5
12 | O=C(OCCN1CCOCC1)C1(c2ccccc2)CCCCC1 [PRE-084] | 100.3 ± 14.3
13 | Cc1nc2n(c(=O)c1CCN1CCC(c3noc4cc(F)ccc34)CC1)CCCC2O (centres unmarked) [Paliperidone] | 94.9 ± 1.6
14 | COc1ccc(Cc2nccc3cc(OC)c(OC)cc23)cc1OC [Papaverine hydrochloride] | 86.6 ± 22.0
15 | C#CCN(C)Cc1ccccc1 [Pargyline hydrochloride] | 102.9 ± 12.8
16 | NC[C@@H]1O[C@H](O[C@H]2[C@@H](O)[C@H](O[C@@H]3[C@@H](O)[C@H](N)C[C@H](N)[C@H]3O[C@H]3O[C@H](CO)[C@@H](O)[C@H](O)[C@H]3N)O[C@@H]2CO)[C@H](N)[C@@H](O)[C@@H]1O [Paromomycin sulfate] | 106.3 ± 7.8
17 | Fc1ccc([C@@H]2CCNC[C@H]2COc2ccc3c(c2)OCO3)cc1 [Paroxetine hydrochloride hemihydrate] | 97.2 ± 4.3
18 | N=C(N)c1ccc(OCCCCCOc2ccc(C(=N)N)cc2)cc1 [Pentamidine isethionate] | 100.3 ± 6.3
19 | C[N+]1(CCCCC[N+]2(C)CCCC2)CCCC1.O=C([O-])C(O)C(O)C(=O)O.O=C([O-])C(O)C(O)C(=O)O [Pentolinium di[L(+)-tartrate]] | 106.3 ± 2.7
20 | CC(=O)CCCCn1c(=O)c2c(ncn2C)n(C)c1=O [Pentoxifylline] | 81.9 ± 17.4

Row | Structure (SMILES) | % 25 nM CA200645 binding [%]
21 | C1CCc2nnnn2CC1 [Pentylenetetrazole] | 95.4 ± 8.7
22 | CCCN1C[C@H](CSC)C[C@@H]2c3cccc4[nH]cc(c34)C[C@H]21 [Pergolide methanesulfonate] | 82.8 ± 15.4
23 | OCCN1CCN(CCCN2c3ccccc3Sc3ccc(Cl)cc32)CC1 [Perphenazine] | 88.8 ± 23.6
24 | NCC(CP(=O)(O)O)c1ccc(Cl)cc1 (centres unmarked) [Phaclofen] | 107.2 ± 18.9
25 | NNCCc1ccccc1 [Phenelzine sulfate] | 99.4 ± 7.6
26 | CN(C)CCC(c1ccccc1)c1ccccn1 (centres unmarked) [Pheniramine maleate] | 91.5 ± 14.9
27 | CN1CC[C@@]2(C)c3cc(OC(=O)Nc4ccccc4)ccc3N(C)[C@@H]12 [Phenserine] | 81.1 ± 29.6
28 | Cc1ccc(N(CC2=NCCN2)c2cccc(O)c2)cc1 [Phentolamine mesylate] | 98.9 ± 10.7
29 | CNC[C@H](O)c1cccc(O)c1 [Phenylephrine hydrochloride] | 102.2 ± 12.7
30 | O=C(CCc1ccc(O)cc1)c1c(O)cc(O)cc1O [Phloretin] | 67.7 ± 15.2
31 | CCCCCCCCCCCCCC(=O)O[C@@H]1[C@@H](C)[C@@]2(O)[C@@H](C=C(CO)C[C@]3(O)C(=O)C(C)=C[C@@H]23)[C@@H]2C(C)(C)[C@]12OC(C)=O [Phorbol 12-myristate 13-acetate] | 80.3 ± 5.6
32 | C[C@@H]1O[C@@H]1P(=O)(O)O [Phosphomycin disodium] | 98.9 ± 12.7
33 | O=C(O)CP(=O)(O)O [Phosphonoacetic acid] | 103.4 ± 12.3
34 | Oc1cc(O)cc(/C=C/c2ccc(O)c(O)c2)c1 [Piceatannol] | 79.1 ± 22.1
35 | COc1ccc(C(=O)NCc2cccnc2)cc1C(=O)NCc1cccnc1 [Picotamide] | 109.0 ± 15.4
36 | NS(=O)(=O)C#Cc1ccccc1 [Pifithrin-mu] | 92.3 ± 34.4
37 | CC[C@@H]1C(=O)OC[C@@H]1Cc1cncn1C [Pilocarpine nitrate] | 92.9 ± 2.4
38 | O=c1[nH]c2ccccc2n1C1CCN(CCCC(c2ccc(F)cc2)c2ccc(F)cc2)CC1 [Pimozide] | 78.2 ± 10.9
39 | CC(N/C(=N\C#N)Nc1ccncc1)C(C)(C)C (centres unmarked) [Pinacidil] | 105.1 ± 8.3
40 | CC(C)NCC(O)COc1cccc2[nH]ccc12 (centres unmarked) [Pindolol] | 84.7 ± 11.8

Row | Structure (SMILES) | % 25 nM CA200645 binding [%]
41 | Clc1ccc2c(N3CCN(CCCN4CCN(c5ccnc6cc(Cl)ccc56)CC4)CC3)ccnc2c1 [Piperaquine tetraphosphate tetrahydrate] | 96.8 ± 7.2
42 | NC(=O)CN1CCCC1=O [Piracetam] | 110.0 ± 4.3
43 | Cc1ccc(=O)n(-c2ccccc2)c1 [Pirfenidone] | 96.4 ± 15.8
44 | O=C(O)/C=C\C(=O)O.c1cnc(N2CCN(Cc3ccc4c(c3)OCO4)CC2)nc1 [Piribedil maleate] | 97.8 ± 1.7
45 | CN1C(C(=O)Nc2ccccn2)=C(O)c2ccccc2S1(=O)=O [Piroxicam] | 101.0 ± 12.2
46 | COc1cc([C@@H]2c3cc4c(cc3[C@H](O)[C@H]3COC(=O)[C@H]23)OCO4)cc(OC)c1OC [Podophyllotoxin] | 97.7 ± 17.3
47 | O=C(C1CCCCC1)N1CC(=O)N2CCc3ccccc3C2C1 (centres unmarked) [Praziquantel] | 100.5 ± 15.0
48 | COc1cc2nc(N3CCN(C(=O)c4ccco4)CC3)nc(N)c2cc1OC [Prazosin hydrochloride] | 109.3 ± 23.7
49 | CC(=O)[C@H]1CC[C@H]2[C@@H]3CC=C4C[C@@H](OS(=O)(=O)[O-])CC[C@]4(C)[C@H]3CC[C@]12C.[Na+] [Pregnenolone sulfate sodium] | 100.9 ± 23.1
50 | CCCNC(C)C(=O)Nc1ccccc1C (centres unmarked) [Prilocaine hydrochloride] | 106.9 ± 9.7
51 | CCC1(c2ccccc2)C(=O)NCNC1=O [Primidone] | 96.1 ± 4.9
52 | CCN(CC)CCNC(=O)c1ccc(N)cc1 [Procainamide hydrochloride] | 89.6 ± 33.7
53 | CN1CCN(CCCN2c3ccccc3Sc3ccc(Cl)cc32)CC1 [Prochlorperazine dimaleate] | 90.4 ± 18.3
54 | CCCN(CCC)C(=O)C(CCC(=O)O)NC(=O)c1ccccc1 (centres unmarked) [Proglumide] | 107.1 ± 0.6
55 | CN(C)CCCN1c2ccccc2Sc2ccccc21 [Promazine hydrochloride] | 80.6 ± 8.4
56 | CC(CN1c2ccccc2Sc2ccccc21)N(C)C (centres unmarked) [Promethazine hydrochloride] | 96.7 ± 11.4
57 | CCCNCC(O)COc1ccccc1C(=O)CCc1ccccc1 (centres unmarked) [Propafenone hydrochloride] | 111.3 ± 10.1
58 | CC(C)[N+](C)(CCOC(=O)C1c2ccccc2Oc2ccccc21)C(C)C [Propantheline bromide] | 95.5 ± 4.8

Same assay, conditions: % of control wells (1% DMSO and 25 nM CA200645); compounds at 10 µM; whole live cells expressing the A3AR; mean ± SD, three experiments in duplicate

Row | Structure (SMILES) | % 25 nM CA200645 binding [%]
59 | C=C1C(=O)O[C@H]2[C@H]1CC/C(C)=C/CC[C@@]1(C)O[C@@H]21 [Parthenolide] | 98.5 ± 15.3
60 | NC(=Nc1ccccc1)NC(=O)c1nc(Cl)c(N)nc1N [Phenamil methanesulfonate] | 100.4 ± 3.8
61 | Cc1nc2ccccn2c(=O)c1CCN1CCC(C(=O)c2ccc(F)cc2)CC1 [Pirenperone] | 88.6 ± 5.4

Same assay, conditions: compounds tested at 10 µM; % of control wells (1% DMSO and 25 nM CA200645); whole live cells expressing the A3AR; mean ± SD, three experiments in duplicate

Row | Structure (SMILES) | % 25 nM CA200645 binding [%]
62 | CC(C)C[C@H](NP(=O)([O-])O[C@H]1O[C@H](C)[C@@H](O)[C@H](O)[C@@H]1O)C(=O)N[C@@H](Cc1c[nH]c2ccccc12)C(=O)[O-].[Na+].[Na+] [Phosphoramidon disodium] | 101.2 ± 7.1
